Experiments:
Assay type in all cases: in vivo
[1] = tested on: spontaneous hypertensive (SH) rat; test: Effects on blood pressure in the spontaneous hypertensive (SH) rat (Example 2, Table II)
Method: Test conducted for effects on blood pressure in the spontaneous hypertensive (SH) rat.
Twelve week old spontaneous hypertensive male rats (Okomoto strain) are used as a model in the antihypertensive test.
Systolic blood pressure is measured indirectly from the tail of unanesthetized rats using a pneumatic pulse transducer. Control readings are taken prior to drug administration and post drug readings are taken at 1, 3, 6 and 24 hours.
Drug-related alteration in systolic blood pressure is expressed as percentage change by comparing control absolute values with post drug absolute values.
The results are expressed as absolute values and percent changes from controls.
Compounds are considered active when about a 15% or greater reduction in blood pressure is obtained. However, the reduction in blood pressure must show mathematical significance ([…]). The compound was administered for a five-day period by intubation and thereafter dosing was discontinued but blood pressure monitoring was continued.

DOCA-Na. rat = test: Comparative antihypertensive activity of polyether ionophores in the DOCA-Na rat (Example 3, Table III); conditions: oral, five-day period, daily dose 1/100 of oral LD50 up to 10 mg/kg/day
Method: Using bromolasalocid as a standard for comparison, a number of polyether ionophores were tested for antihypertensive activity. The tests were conducted utilizing single oral dosages in the DOCA-Na. rat over a five-day period with dosing discontinued thereafter. Blood pressure monitoring was carried out for the five-day period and daily after cessation of dosing until blood pressure returned to pre-drug levels. […] The daily dosage was calculated by using one-one hundredth (1/100) of the oral (per os) toxicity (LD50) up to a maximum of 10 mg/kg/day. The antihypertensive activity expressed as AHR (Subacute antihypertensive ratio) was calculated using bromolasalocid as the standard reference (Table III).

DOCA Na rat = test: Low dose chronic administration in the DOCA Na rat (Example 4, Table IV); conditions: for Stroke Volume Index, mean value: control 4.82±0.31; for Pulse pressure, mean value: control 62.5±5.3; for Arterial blood pressure, mean value: control 175.0±3.8; for Arterial blood pressure, % Δ / Pulse pressure, % Δ / Stroke Volume Index, % Δ: vs control
Method: A test was conducted for antihypertensive activity in the DOCA Na rat utilizing low dose chronic administration.
DOCA Na male rats weighing 170 to 210 grams are used in the test. DOCA Na hypertension is induced by unilateral nephrectomy followed by subcutaneous implantation of a 25 mg. desoxycorticosterone (DOCA) pellet. Animals are placed in individual cages receiving 0.9% sodium chloride solution to drink and rat chow diet ad libitum. Two weeks are allowed to elapse from the time of surgery for development of hypertension, i.e., systolic blood pressure of at least 150 mmHg.
Mean blood pressure and heart rate in the rats dosed at 5 mg/kg/day, 1 mg/kg/day, 0.1 mg/kg/day and as those used as controls are measured directly by placing a polyethylene catheter in a femoral artery and thereafter measuring the blood pressure by a Stathem Pressure Transducer. Control animals and drug dosed subjects are measured side by side. Direct readings were taken when the animal model began to show signs of inherent deterioration.
The experimental results are represented as absolute values. Drug-related alterations in mean blood pressure are expressed as percentage change by comparing control absolute values with drug absolute values. Compounds are considered active when about a 15% or greater reduction in blood pressure is obtained. However, the reduction in blood pressure must show mathematical significance ([…]).
A derivative of the polyether ionophore, laslaocid, i.e., the bromo derivative of lasalocid, was tested in the above screen. The compound was administered in a food admix on a daily basis.

[2] = Oral (per os) toxicity (LD50); conditions: in vivo, read-out: LD50
[3] = 0.1 mg/kg/day in food admix, at 24 Days
[4] = 1 mg/kg/day in food admix, at 28 Days
[5] = 5 mg/kg/day in food admix, at 11 Days

CC[C@@H](C(=O)[C@@H](C)[C@@H](O)[C@H](C)CCc1c(Br)cc(C)c(O)c1C(=O)O)[C@H]1O[C@](CC)([C@H]2CC[C@](O)(CC)[C@H](C)O2)C[C@@H]1C [bromolasalocid]
Average Systolic Blood Pressure Per Group ([1]; 10 mg/kg per day for 5 days, Day 1 pm, pre-drug 227, p<.05): 211 mmHg | Average Systolic Blood Pressure Per Group ([1]; 10 mg/kg per day for 5 days, Day 2 am, pre-drug 227): 215 mmHg | Average Systolic Blood Pressure Per Group ([1]; 10 mg/kg per day for 5 days, Day 2 pm, pre-drug 227): 217 mmHg | Average Systolic Blood Pressure Per Group ([1]; 10 mg/kg per day for 5 days, Day 3 am, pre-drug 227, p<.05): 203 mmHg | Average Systolic Blood Pressure Per Group ([1]; 10 mg/kg per day for 5 days, Day 3 pm, pre-drug 227, p<.05): 199 mmHg | Average Systolic Blood Pressure Per Group ([1]; 10 mg/kg per day for 5 days, Day 4 am, pre-drug 227, p<.05): 193 mmHg | Average Systolic Blood Pressure Per Group ([1]; 10 mg/kg per day for 5 days, Day 4 pm, pre-drug 227, p<.05): 198 mmHg | Average Systolic Blood Pressure Per Group ([1]; 10 mg/kg per day for 5 days, Day 5 am, pre-drug 227, p<.05): 200 mmHg | Average Systolic Blood Pressure Per Group ([1]; 10 mg/kg per day for 5 days, Day 5 pm, pre-drug 227, p<.05): 209 mmHg | Average Systolic Blood Pressure Per Group ([1]; 10 mg/kg per day for 5 days, Day 8 am, pre-drug 227, p<.05): 199 mmHg | Average Systolic Blood Pressure Per Group ([1]; 20 mg/kg per day for 5 days, Day 1 pm, pre-drug 211): 201 mmHg | Average Systolic Blood Pressure Per Group ([1]; 20 mg/kg per day for 5 days, Day 2 am, pre-drug 211): 209 mmHg | Average Systolic Blood Pressure Per Group ([1]; 20 mg/kg per day for 5 days, Day 2 pm, pre-drug 211): 200 mmHg | Average Systolic Blood Pressure Per Group ([1]; 20 mg/kg per day for 5 days, Day 3 am, pre-drug 211): 214 mmHg | Average Systolic Blood Pressure Per Group ([1]; 20 mg/kg per day for 5 days, Day 3 pm, pre-drug 211): 209 mmHg | Average Systolic Blood Pressure Per Group ([1]; 20 mg/kg per day for 5 days, Day 4 am, pre-drug 211): 205 mmHg | Average Systolic Blood Pressure Per Group ([1]; 20 mg/kg per day for 5 days, Day 4 pm, pre-drug 211): 204 mmHg | Average Systolic Blood Pressure Per Group ([1]; 20 mg/kg per day for 5 days, Day 5 am, pre-drug 211): 210 mmHg | Average Systolic Blood Pressure Per Group ([1]; 20 mg/kg per day for 5 days, Day 5 pm, pre-drug 211, p<.05): 187 mmHg | Average Systolic Blood Pressure Per Group ([1]; 20 mg/kg per day for 5 days, Day 8 am, pre-drug 211): 210 mmHg | Average Systolic Blood Pressure Per Group ([1]; 50 mg/kg per day for 5 days, Day 1 pm, pre-drug 215): 208 mmHg | Average Systolic Blood Pressure Per Group ([1]; 50 mg/kg per day for 5 days, Day 2 am, pre-drug 215, p<.05): 193 mmHg | Average Systolic Blood Pressure Per Group ([1]; 50 mg/kg per day for 5 days, Day 2 pm, pre-drug 215, p<.05): 176 mmHg | Average Systolic Blood Pressure Per Group ([1]; 50 mg/kg per day for 5 days, Day 3 am, pre-drug 215, p<.05): 175 mmHg | Average Systolic Blood Pressure Per Group ([1]; 50 mg/kg per day for 5 days, Day 3 pm, pre-drug 215, p<.05): 160 mmHg | Average Systolic Blood Pressure Per Group ([1]; 50 mg/kg per day for 5 days, Day 4 am, pre-drug 215, p<.05): 183 mmHg | Average Systolic Blood Pressure Per Group ([1]; 50 mg/kg per day for 5 days, Day 4 pm, pre-drug 215, p<.05): 169 mmHg | Average Systolic Blood Pressure Per Group ([1]; 50 mg/kg per day for 5 days, Day 5 am, pre-drug 215, p<.05): 184 mmHg | Average Systolic Blood Pressure Per Group ([1]; 50 mg/kg per day for 5 days, Day 5 pm, pre-drug 215, p<.05): 167 mmHg | Average Systolic Blood Pressure Per Group ([1]; 50 mg/kg per day for 5 days, Day 8 am, pre-drug 215): 207 mmHg | Average Systolic Blood Pressure Per Group ([1]; 100 mg/kg per day for 5 days, Day 1 pm, pre-drug 218, p<.05): 176 mmHg | Average Systolic Blood Pressure Per Group ([1]; 100 mg/kg per day for 5 days, Day 2 am, pre-drug 218, p<.05): 185 mmHg | Average Systolic Blood Pressure Per Group ([1]; 100 mg/kg per day for 5 days, Day 2 pm, pre-drug 218, p<.05): 142 mmHg | Average Systolic Blood Pressure Per Group ([1]; 100 mg/kg per day for 5 days, Day 3 am, pre-drug 218, p<.05): 128 mmHg | Average Systolic Blood Pressure Per Group ([1]; 100 mg/kg per day for 5 days, Day 3 pm, pre-drug 218, p<.05): 123 mmHg | Average Systolic Blood Pressure Per Group ([1]; 100 mg/kg per day for 5 days, Day 4 am, pre-drug 218, p<.05): 113 mmHg | Average Systolic Blood Pressure Per Group ([1]; 100 mg/kg per day for 5 days, Day 4 pm, pre-drug 218, p<.05): 131 mmHg | Average Systolic Blood Pressure Per Group ([1]; 100 mg/kg per day for 5 days, Day 5 pm, pre-drug 218, p<.05): 108 mmHg | ONSET TO MAX. RESPONSE (DOCA-Na. rat): 4 days | DURATION OF EFFECT (DOCA-Na. rat; monitored until return to pre-drug levels): 15 days | Stroke Volume Index, mean value (DOCA Na rat; [3]): 4.03±0.17 | Pulse pressure, mean value (DOCA Na rat; [3]): 41.1±7.4 | Arterial blood pressure, mean value (DOCA Na rat; [3]): 132.4±16.0 | Arterial blood pressure, % Δ (DOCA Na rat; [3]): -24.34% | Pulse pressure, % Δ (DOCA Na rat; [3]): -34.24% | Stroke Volume Index, % Δ (DOCA Na rat; [3]): -16.39% | Stroke Volume Index, mean value (DOCA Na rat; [4]): 5.86±.31 | Pulse pressure, mean value (DOCA Na rat; [4]): 45±3.5 | Arterial blood pressure, mean value (DOCA Na rat; [4]): 140.1±16 | Arterial blood pressure, % Δ (DOCA Na rat; [4]): -19.94% | Pulse pressure, % Δ (DOCA Na rat; [4]): -28.00% | Stroke Volume Index, % Δ (DOCA Na rat; [4]): 21.58% | Stroke Volume Index, mean value (DOCA Na rat; [5]): 4.96±0.61 | Pulse pressure, mean value (DOCA Na rat; [5]): 47.4±7.3 | Arterial blood pressure, mean value (DOCA Na rat; [5]): 140.0±12.6 | Arterial blood pressure, % Δ (DOCA Na rat; [5]): -20.00% | Pulse pressure, % Δ (DOCA Na rat; [5]): -24.16% | Stroke Volume Index, % Δ (DOCA Na rat; [5]): 2.90% | blood pressure (in words) (DOCA Na rat; chronic administration): lowered | pulse pressure (in words) (DOCA Na rat; chronic administration): lowered | pump performance (in words) (DOCA Na rat; chronic administration): competent | stroke volume index (in words) (DOCA Na rat; chronic administration): no significant alteration has occurred | LD50 [2]: 1200 mg/kg

From patent US4161520A, “Method of treating hypertension” (priority 1976, dated 1979)
